Reference: patent US11746116B2, “Antibiotic resistance breakers” (KING'S COLLEGE LONDON, priority 2017, dated 2023)

How the values were obtained:
M6 = experiment: MIC, microdilution broth method; format: cell-based
EC12923 = experiment: MIC, microdilution broth method; format: cell-based
MSSA9144 = experiment: MIC, microdilution broth method; format: cell-based, Staphylococcus aureus
EMRSA15 = experiment: MIC, microdilution broth method; format: cell-based, Staphylococcus aureus
VRE12204 = experiment: MIC, microdilution broth method; format: cell-based, Enterococcus faecium; details: ESKAPE panel, Gram-positive; in µg/mL
extended bacterial panel = experiment: MIC against an extended bacterial panel (Table 15); format: cell-based
[1] = ESKAPE panel, Gram-negative, in µg/mL

Cc1cc(C)nc(N[C@@H]2CCN(c3c(F)cc4c(=O)c(C(=O)O)cn5c4c3OC[C@@H]5C)C2)n1 [KSN-BL7, (S)-10-((R)-3-((4,6-dimethylpyrimidin-2-yl)amino)pyrrolidin-1-yl)-9-fluoro-3-methyl-7-oxo-2,3-dihydro-7H-[1,4]oxazino[2,3,4-ij]quinoline-6-carboxylic acid]
0.125 µg/mL: MIC (EMRSA15; Staphylococcus aureus) | MIC (extended bacterial panel; Enterococcus faecalis, ATCC51299, Enterococcus faecalis ATCC 51299, VanB) | MIC (extended bacterial panel; Enterococcus faecalis, ATCC700802, Enterococcus faecalis ATCC 700802, VanB) | MIC (extended bacterial panel; Strepotococcus pyogenes ATCC 14289) | MIC (extended bacterial panel; Strepotococcus pyogenes ATCC 19615) | MIC (extended bacterial panel; Streptococcus pneumoniae, ATCC6301, Streptococcus pneumoniae ATCC 6301) | MIC (extended bacterial panel; Streptococcus pneumoniae, ATCC49619, Streptococcus pneumoniae ATCC 49619) | MIC (extended bacterial panel; Streptococcus pneumoniae, ATCC51916, Streptococcus pneumoniae Tenessee 23F, ATCC 51916, MDR) | MIC (extended bacterial panel; Streptococcus pneumoniae, ATCC700676, Streptococcus pneumonia England ST14-9 ATCC 700676, ERY-R)
2: MIC, M6 (M6; [1])
8 µg/mL: MIC (extended bacterial panel; Staphylococcus aureus, MRSA / VISA, Staphylococcus aureus FDA-CDC AR-BANK# 0228, MRSA/VISA Mupirocin-R)
4 µg/mL: MIC (extended bacterial panel; Staphylococcus aureus, MRSA / NRS 22 / USA600 / VISA, Staphylococcus aureus NRS22, USA600 MRSA/VISA) | MIC (extended bacterial panel; Staphylococcus aureus, MRSA / NRS 127, Staphylococcus aureus NRS127, MRSA LZD-NS) | MIC (extended bacterial panel; Staphylococcus aureus, MRSA / VISA, Staphylococcus aureus FDA-CDC AR-BANK# 0219)
2 µg/mL: MIC (M6; Klebsiella pneumoniae) | MIC (extended bacterial panel; Staphylococcus aureus, ATCC 700699 / MRSA / VISA, Staphylococcus aureus Mu50, ATCC 700699, MRSA/VISA) | MIC (extended bacterial panel; Staphylococcus aureus, MRSA / NRS 269, Staphylococcus aureus NRS269, MRSA TGC-NS) | MIC (extended bacterial panel; Staphylococcus aureus, MRSA / VRSA, Staphylococcus aureus VRS11b, VanA MRSA/VRSA)
0.125-0.25: MIC, EMRSA15 (EMRSA15; EMRSA15 (Table 16, role of the terminal pyrimidine ring), in µg/mL)
≤0.0039: MIC, MSSA9144 (MSSA9144; ESKAPE panel, Gram-positive, in µg/mL)
≤ 0.0312 µg/mL: MIC (extended bacterial panel; Staphylococcus aureus, ATCC10390, Staphylococcus aureus ATCC 10390) | MIC (extended bacterial panel; Staphylococcus aureus, ATCC 13709 / MRSA, Staphylococcus aureus ATCC 13709, MRSA) | MIC (extended bacterial panel; Staphylococcus aureus, ATCC19636, Staphylococcus aureus Smith, ATCC 19636) | MIC (extended bacterial panel; Staphylococcus aureus, ATCC27660, Staphylococcus aureus ATCC 27660) | MIC (extended bacterial panel; Staphylococcus aureus, ATCC29213, Staphylococcus aureus ATCC 29213) | MIC (extended bacterial panel; Staphylococcus aureus, ATCC 33591 / MRSA, Staphylococcus aureus ATCC 33591, MRSA) | MIC (extended bacterial panel; Staphylococcus aureus, ATCC 33592 / MRSA, Staphylococcus aureus ATCC 33592, MRSA) | MIC (extended bacterial panel; Staphylococcus aureus, ATCC33594, Staphylococcus aureus ATCC 33594) | MIC (extended bacterial panel; Staphylococcus aureus, ATCC49230, Staphylococcus aureus ATCC 49230) | MIC (extended bacterial panel; Staphylococcus aureus, BAA-1707 / MRSA / USA400, Staphylococcus aureus MW2, BAA-1707, USA400 MRSA) | MIC (extended bacterial panel; Staphylococcus aureus, BAA-1717 / MRSA / USA300, Staphylococcus aureus TCH1516, BAA-1717, USA300 MRSA) | MIC (extended bacterial panel; Staphylococcus aureus, MRSA / NRS 100, Staphylococcus aureus COL, NRS100, MRSA) | MIC (extended bacterial panel; Staphylococcus aureus, MRSA / NRS 123 / USA400, Staphylococcus aureus NRS123, USA400 MRSA) | MIC (extended bacterial panel; Staphylococcus aureus, MRSA / NRS 384 / USA300, Staphylococcus aureus NRS384, USA300 MRSA) | MIC (extended bacterial panel; Staphylococcus aureus, MRSA / NRS 387 / USA800, Staphylococcus aureus NRS387, USA800 MRSA) | MIC (extended bacterial panel; Staphylococcus aureus, MRSA / NRS 483, Staphylococcus aureus NRS483, USA1000 MRSA) | MIC (extended bacterial panel; Staphylococcus aureus, MRSA / NRS 484, Staphylococcus aureus NRS484, USA1100 MRSA) | MIC (extended bacterial panel; Staphylococcus aureus, MRSA / VISA, Staphylococcus aureus FDA-CDC AR-BANK# 0226) | MIC (extended bacterial panel; Staphylococcus aureus, NRS72, Staphylococcus aureus Sanger-476, NRS72) | MIC (extended bacterial panel; Staphylococcus aureus, NRS157, Staphylococcus aureus NRS157) | MIC (extended bacterial panel; Staphylococcus aureus, Staphylococcus aureus 6538P) | MIC (extended bacterial panel; Staphylococcus aureus, VISA, Staphylococcus aureus FDA-CDC AR-BANK# 0222) | MIC (extended bacterial panel; Staphylococcus epidermidis, ATCC12228, Staphylococcus epidermidis ATCC 12228) | MIC (extended bacterial panel; Staphylococcus epidermidis, ATCC51625, Staphylococcus epidermidis CCF 15990, ATCC 51625) | MIC (extended bacterial panel; Staphylococcus epidermidis, NRS101, Staphylococcus epidermidis NRS101) | MIC (extended bacterial panel; Staphylococcus haemolyticus, ATCC29970, Staphylococcus haemolyticus ATCC 29970) | MIC (extended bacterial panel; Staphylococcus intermedius, ATCC29663, Staphylococcus intermedius ATCC 29663) | MIC (extended bacterial panel; Streptococcus mutans, ATCC25175, Streptococcus mutans ATCC 25175)
0.0625 µg/mL: MIC (extended bacterial panel; Staphylococcus aureus, NRS 12 / VISA, Staphylococcus aureus NRS12, VISA) | MIC (extended bacterial panel; Staphylococcus epidermidis, NRS60, Staphylococcus epidermidis NRS60, VISE) | MIC (extended bacterial panel; Staphylococcus saprophyticus, ATCC15305, Staphylococcus saprophyticus ATCC 15305) | MIC (extended bacterial panel; Streptococcus pneumoniae, ATCC700669, Streptococcus pneumoniae SP264, ATCC 700669, ST 23F) | MIC (extended bacterial panel; Streptococcus pneumoniae, ATCC700673, Streptococcus pneumoniae Hungary 19A, ATCC 700673, MDR) | MIC (extended bacterial panel; Streptococcus pneumoniae, ATCC700675, Streptococcus pneumoniae S. Africa 6B-8, ATCC 700675) | MIC (extended bacterial panel; Streptococcus pneumoniae, ATCC 700677 / PRSP, Streptococcus pneumoniae CSR 14-10, ATCC 700677, PRSP) | MIC (extended bacterial panel; Streptococcus pneumoniae, PRSP, Streptococcus pneumoniae TM532)
1 µg/mL: MIC (EC12923; Escherichia coli) | MIC (extended bacterial panel; Enterococcus faecium, CCUG59167, Enterococcus faecium TUH44-29, CCUG 59167, Van A) | MIC (extended bacterial panel; Staphylococcus aureus, ATCC29213, Staphylococcus aureus ATCC 29213 with 50% human serum) | MIC (extended bacterial panel; Staphylococcus aureus, MRSA / NRS 17 / VISA, Staphylococcus aureus NRS17, MRSA/VISA) | MIC (extended bacterial panel; Staphylococcus aureus, MRSA / NRS 56 / VISA, Staphylococcus aureus NRS56, MRSA/VISA) | MIC (extended bacterial panel; Staphylococcus aureus, MRSA / NRS 71, Staphylococcus aureus NRS71, MRSA) | MIC (extended bacterial panel; Staphylococcus aureus, MRSA / NRS 119, Staphylococcus aureus NRS119, MRSA LZD-NS) | MIC (extended bacterial panel; Staphylococcus aureus, MRSA / NRS 383 / USA200, Staphylococcus aureus NRS383, USA200 MRSA TIG-NS) | MIC (extended bacterial panel; Staphylococcus aureus, MRSA / NRS 402 / VISA, Staphylococcus aureus NRS402, MRSA/VISA DAP-NS) | MIC (extended bacterial panel; Staphylococcus aureus, MRSA / VISA, Staphylococcus aureus FDA-CDC AR-BANK# 0217) | MIC (extended bacterial panel; Staphylococcus aureus, MRSA / VISA, Staphylococcus aureus FDA-CDC AR-BANK# 0218, MRSA/VISA Mupirocin-R) | MIC (extended bacterial panel; Staphylococcus aureus, MRSA / VISA, Staphylococcus aureus FDA-CDC AR-BANK# 0220) | MIC (extended bacterial panel; Staphylococcus aureus, MRSA / VISA, Staphylococcus aureus FDA-CDC AR-BANK# 0223) | MIC (extended bacterial panel; Staphylococcus aureus, MRSA / VISA, Staphylococcus aureus FDA-CDC AR-BANK# 0224, MRSA/VISA Mupirocin-R) | MIC (extended bacterial panel; Staphylococcus aureus, MRSA / VISA, Staphylococcus aureus FDA-CDC AR-BANK# 0225) | MIC (extended bacterial panel; Staphylococcus aureus, MRSA / VISA, Staphylococcus aureus FDA-CDC AR-BANK# 0227) | MIC (extended bacterial panel; Staphylococcus aureus, MRSA / VRSA, Staphylococcus aureus VRS1, VanA MRSA/VRSA) | MIC (extended bacterial panel; Staphylococcus aureus, MRSA, Staphylococcus aureus ECL 2963666, MRSA DAP-NS) | MIC (extended bacterial panel; Staphylococcus aureus, MRSA, Staphylococcus aureus ECL 2963667, MRSA DAP-NS) | MIC (extended bacterial panel; Staphylococcus epidermidis, NRS8, Staphylococcus epidermidis NRS8, VISE)
1: MIC, EC12923 (EC12923; [1]) | MIC, VRE12204 (VRE12204)
16 µg/mL: MIC (extended bacterial panel; Staphylococcus aureus, MRSA / VISA, Staphylococcus aureus FDA-CDC AR-BANK# 0215)
≤ 0.0039 µg/mL: MIC (MSSA9144; Staphylococcus aureus)
0.5 µg/mL: MIC (extended bacterial panel; Enterococcus faecalis, CCUG47775, Enterococcus faecalis CCUG 47775, Van A) | MIC (extended bacterial panel; Staphylococcus aureus, BAA-1556 / MRSA / USA300, Staphylococcus aureus FPR3757, BAA-1556, USA300 MRSA) | MIC (extended bacterial panel; Staphylococcus aureus, MRSA / NRS 3 / VISA, Staphylococcus aureus NRS3, MRSA/VISA) | MIC (extended bacterial panel; Staphylococcus aureus, MRSA / NRS 271, Staphylococcus aureus E-MRSA 15, NRS271, MRSA LZD-NS) | MIC (extended bacterial panel; Staphylococcus aureus, MRSA / NRS 382 / USA100, Staphylococcus aureus NRS382, USA100 MRSA) | MIC (extended bacterial panel; Staphylococcus aureus, MRSA / NRS 385 / USA500, Staphylococcus aureus NRS385, USA500 MRSA) | MIC (extended bacterial panel; Staphylococcus aureus, MRSA / VISA, Staphylococcus aureus FDA-CDC AR-BANK# 0216) | MIC (extended bacterial panel; Staphylococcus aureus, MRSA / VISA, Staphylococcus aureus FDA-CDC AR-BANK# 0221) | MIC (extended bacterial panel; Staphylococcus aureus, MRSA / VRSA, Staphylococcus aureus VRS2, VanA MRSA/VRSA) | MIC (extended bacterial panel; Staphylococcus aureus, MRSA / VRSA, Staphylococcus aureus VRS3a, VanA MRSA/VRSA) | MIC (extended bacterial panel; Staphylococcus aureus, MRSA, Staphylococcus aureus ECL 2963743, MRSA DAP-NS) | MIC (extended bacterial panel; Staphylococcus aureus, MRSA, Staphylococcus aureus R136) | MIC (extended bacterial panel; Staphylococcus aureus, VRSA, Staphylococcus aureus ECL 2963646) | MIC (extended bacterial panel; Staphylococcus epidermidis, NRS7, Staphylococcus epidermidis NRS7, VISE)
0.25 µg/mL: MIC (extended bacterial panel; Enterococcus faecalis, ATCC29212, Enterococcus faecalis ATCC 29212) | MIC (extended bacterial panel; Enterococcus faecalis, ATCC51575, Enterococcus faecalis ATCC 51575, VanB) | MIC (extended bacterial panel; Enterococcus gallinarum, ATCC 49608 / GALLINARUM, Enterococcus gallinarum ATCC 49608, VanC) | MIC (extended bacterial panel; Staphylococcus aureus, MRSA / NRS 386 / USA700, Staphylococcus aureus NRS386, USA700 MRSA) | MIC (extended bacterial panel; Staphylococcus aureus, MRSA, Staphylococcus aureus ECL 2963621, MRSA DAP-NS) | MIC (extended bacterial panel; Streptococcus agalactiae, ATCC12386, Streptococcus agalactiae ATCC 12386) | MIC (extended bacterial panel; Streptococcus oralis, ATCC9811, Streptococcus oralis ATCC 9811) | MIC (extended bacterial panel; Streptococcus salivarius, ATCC13419, Streptococcus salivarius ATCC 13419) | MIC (extended bacterial panel; Streptococcus sanguinis, ATCC10556, Streptococcus sanguinis ATCC 10556)
0.125-: MIC, EMRSA15 (EMRSA15; ESKAPE panel, Gram-positive)
